Results taken from BindingDB's records for PubMed 36327695 (n/a, 2022).

Experiments:
Maltase-glucoamylase [1] = biological target: T1, Maltase-glucoamylase (Homo sapiens, UniProt O43451); experiment: Inhibition of alpha-glucosidase (unknown origin) using pNPG as substrate preincubated with enzyme for 15 mins followed by substrate addition and measured after 10 mins by microplate reader analysis
Maltase-glucoamylase [2] = biological target: T1, Maltase-glucoamylase; experiment: Non-competitive inhibition of alpha-glucosidase (unknown origin) using pNPG as substrate preincubated with enzyme for 15 mins followed by substrate addition and measured for 15 mins by Dixon plot analysis

T1 sequence (O43451 whole entry): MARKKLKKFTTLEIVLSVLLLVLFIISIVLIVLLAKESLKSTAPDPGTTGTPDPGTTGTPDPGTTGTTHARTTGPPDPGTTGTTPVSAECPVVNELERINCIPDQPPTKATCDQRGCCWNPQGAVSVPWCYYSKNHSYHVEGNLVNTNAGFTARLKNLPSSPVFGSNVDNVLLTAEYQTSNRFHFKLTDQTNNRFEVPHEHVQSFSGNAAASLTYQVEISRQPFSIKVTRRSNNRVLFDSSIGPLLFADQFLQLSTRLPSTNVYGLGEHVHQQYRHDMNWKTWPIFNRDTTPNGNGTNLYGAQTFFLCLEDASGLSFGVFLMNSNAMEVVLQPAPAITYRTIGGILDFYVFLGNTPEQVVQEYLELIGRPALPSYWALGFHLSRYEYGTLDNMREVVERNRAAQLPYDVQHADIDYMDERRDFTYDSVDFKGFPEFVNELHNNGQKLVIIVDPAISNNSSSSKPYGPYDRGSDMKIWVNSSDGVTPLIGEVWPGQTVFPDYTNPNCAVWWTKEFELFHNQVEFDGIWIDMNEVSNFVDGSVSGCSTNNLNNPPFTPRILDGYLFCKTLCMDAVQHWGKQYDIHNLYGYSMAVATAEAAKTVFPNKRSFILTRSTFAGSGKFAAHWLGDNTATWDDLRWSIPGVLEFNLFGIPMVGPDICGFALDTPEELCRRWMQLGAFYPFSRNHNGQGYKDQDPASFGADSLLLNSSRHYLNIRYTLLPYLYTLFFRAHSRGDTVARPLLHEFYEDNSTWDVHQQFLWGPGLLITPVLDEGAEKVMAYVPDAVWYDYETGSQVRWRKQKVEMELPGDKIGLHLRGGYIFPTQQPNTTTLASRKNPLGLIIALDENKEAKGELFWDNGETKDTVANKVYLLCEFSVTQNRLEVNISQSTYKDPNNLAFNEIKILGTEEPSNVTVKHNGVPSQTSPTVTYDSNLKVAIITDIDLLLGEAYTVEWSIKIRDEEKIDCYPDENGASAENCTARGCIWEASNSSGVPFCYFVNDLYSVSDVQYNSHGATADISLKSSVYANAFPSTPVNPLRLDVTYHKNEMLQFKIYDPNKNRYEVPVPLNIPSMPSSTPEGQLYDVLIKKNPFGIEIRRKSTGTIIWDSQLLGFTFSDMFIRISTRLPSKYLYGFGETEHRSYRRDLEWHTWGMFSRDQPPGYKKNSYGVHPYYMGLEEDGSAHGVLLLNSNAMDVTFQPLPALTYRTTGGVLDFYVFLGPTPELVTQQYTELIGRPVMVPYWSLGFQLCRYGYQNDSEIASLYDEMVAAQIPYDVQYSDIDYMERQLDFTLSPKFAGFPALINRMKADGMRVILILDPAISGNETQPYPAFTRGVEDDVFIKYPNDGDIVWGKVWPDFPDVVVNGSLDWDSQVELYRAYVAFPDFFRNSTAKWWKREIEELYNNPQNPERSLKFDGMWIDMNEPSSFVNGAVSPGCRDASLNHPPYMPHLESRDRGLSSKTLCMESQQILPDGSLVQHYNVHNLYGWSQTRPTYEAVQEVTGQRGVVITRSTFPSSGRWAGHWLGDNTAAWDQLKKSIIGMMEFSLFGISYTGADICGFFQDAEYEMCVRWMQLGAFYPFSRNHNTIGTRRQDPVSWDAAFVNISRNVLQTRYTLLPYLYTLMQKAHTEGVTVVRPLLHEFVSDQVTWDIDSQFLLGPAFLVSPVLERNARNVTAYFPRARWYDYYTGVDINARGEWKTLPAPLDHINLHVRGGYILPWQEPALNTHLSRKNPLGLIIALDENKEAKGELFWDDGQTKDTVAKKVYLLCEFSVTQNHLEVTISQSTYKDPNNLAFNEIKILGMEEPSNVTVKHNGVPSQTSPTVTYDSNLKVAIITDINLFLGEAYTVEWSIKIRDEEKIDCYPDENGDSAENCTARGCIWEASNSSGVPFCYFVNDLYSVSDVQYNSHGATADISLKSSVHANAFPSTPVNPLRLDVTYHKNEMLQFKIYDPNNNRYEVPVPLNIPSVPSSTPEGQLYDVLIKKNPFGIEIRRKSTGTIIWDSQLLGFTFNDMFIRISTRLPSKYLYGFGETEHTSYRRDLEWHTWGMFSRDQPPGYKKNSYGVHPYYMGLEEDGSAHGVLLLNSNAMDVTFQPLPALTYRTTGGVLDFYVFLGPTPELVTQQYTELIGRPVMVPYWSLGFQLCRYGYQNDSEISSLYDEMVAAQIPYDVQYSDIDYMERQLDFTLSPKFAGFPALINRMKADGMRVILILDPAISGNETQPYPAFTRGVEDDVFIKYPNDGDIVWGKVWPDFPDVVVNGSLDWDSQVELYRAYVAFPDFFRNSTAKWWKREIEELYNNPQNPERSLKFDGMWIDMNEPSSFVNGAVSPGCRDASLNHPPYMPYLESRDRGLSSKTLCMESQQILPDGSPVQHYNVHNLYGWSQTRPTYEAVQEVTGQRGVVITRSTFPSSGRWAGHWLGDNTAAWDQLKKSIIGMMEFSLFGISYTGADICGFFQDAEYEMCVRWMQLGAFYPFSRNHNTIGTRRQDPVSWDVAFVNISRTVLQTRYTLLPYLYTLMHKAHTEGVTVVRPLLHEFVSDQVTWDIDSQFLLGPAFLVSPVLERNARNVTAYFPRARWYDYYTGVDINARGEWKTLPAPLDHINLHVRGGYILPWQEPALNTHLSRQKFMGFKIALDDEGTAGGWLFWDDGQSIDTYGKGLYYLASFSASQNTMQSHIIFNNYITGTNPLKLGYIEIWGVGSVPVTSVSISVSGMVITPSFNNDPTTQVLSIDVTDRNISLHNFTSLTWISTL

`C=CCc1cc(-c2ccc(O)c(CC=C)c2)c(O)c(C(c2cc(Cl)cc(Cl)c2)N2CCCCC2)c1` (configuration not stated) was tested, and the IC50 (Maltase-glucoamylase [1]) was 23.5 µM.
For `C=CCc1cc(-c2ccc(O)c(CC=C)c2)c(O)c(C(c2cc(Cl)cc(Cl)c2)N2CCOCC2)c1` (configuration not stated), the IC50 (Maltase-glucoamylase [1]) was 13.8 µM and the Ki (Maltase-glucoamylase [2]) was 3.27 µM.
`C=CCc1cc(-c2cc(CC=C)c(O)c(C(c3ccc(Cl)cc3)N3CCOCC3)c2)c(O)c(C(c2ccc(Cl)cc2)N2CCOCC2)c1` (configuration not stated) was tested, and the IC50 (Maltase-glucoamylase [1]) was 18.6 µM.
Compound `C=CCc1cc(-c2ccc(O)c(CC=C)c2)c(O)c(C(c2cc(Cl)cc(Cl)c2)N2CCC(C)CC2)c1` (configuration not stated) has an IC50 (Maltase-glucoamylase [1]) of 14.9 µM and a Ki (Maltase-glucoamylase [2]) of 1.7 µM.
`C=CCc1cc(-c2ccc(O)c(CC=C)c2)c(O)c(C(c2ccc(OC)cc2)N2CCCCC2)c1` (configuration not stated) showed an IC50 (Maltase-glucoamylase [1]) of 30.4 µM.
